Data published in patent US11700805B2, “Regeneration of plants in the presence of histone deacetylase inhibitors” (KWS SAAT SE & CO. KGaA, priority 2017, dated 2023).
“Also recorded” adds a separate entry of the source. Read-outs that look alike come from different tables or passages of the source.

Legend:
[1] = system: Arabidopsis hypocotyl explants; settings: alone or in combination of kinetin and TSA; cited from earlier work
[2] = system: friable calli from sugar beet leaf explants; assay: Shoot regeneration from friable calli induced in the presence of TSA; assay type: cell-based, Beta vulgaris
Method: 2. Technical Description of the Shoot Regeneration Protocol 1. The friable calli of step 4 were harvested in medium containing MS salts, 30 g/l sucrose, 1 mg/l GA3 and 1 mg/l TDZ, and transferred to separate dishes. 2. The dishes were incubated under the light (16 h) at 24° C. for 10 days. 3. Developing shoots were counted under a stereomicroscope, in order to estimate the regeneration capacity (number of shoots per initial leaf explant).

[3] = system: cells derived from male gametophytes of diverse plant species; settings: TSA added to the culture medium; cited from earlier work
[4] = system: Arabidopsis leaf explants; settings: treatment with TSA; cited from earlier work
[5] = system: leaf explants of sugar beet (Beta vulgaris); assay type: cell-based
Method: 1. Technical Description of the Sugar Beet Callus Induction Protocol
This method is based on the publication by Kischenko et al., 2005 Cell Biology International.
1. Micropropagated shoots of the genotype S706 were used as starting material. Shoots were multiplied in MS salts supplemented with 30 g/l sucrose and 0.25 mg/l benzyladenine (BAP).
2. To induce friable callus, leaf explants were isolated from micropropagated shoots and incubated in medium containing MS salts including 15 g/l sucrose and 2 mg/l BAP as a control and in the same medium supplemented with 0.01 μM TSA (B1), 0.1 μM TSA (B2), 0.5 μM TSA (B3), 1.0 μM TSA (B4), and 5.0 μM TSA (B5), at 28° C. in the dark for 7 weeks.
3. Development of callus from leaf explants was monitored during the incubation in the callus induction medium at 4, 5, 6 and 7 weeks.
4. Leaf explants producing friable calli were scored in order to calculate the callus induction frequency (percentage of leaf explants that produced friable calli).

SMILES | induction of callus growth [1] | average number of shoots per explant ([2]; genotype 1, callus induced with 0.01 μM TSA, control 4.7) | average number of shoots per explant ([2]; genotype 2, callus induced with 0.01 μM TSA, control 2.4) | regeneration of shoots from produced calli ([2]; genotype 3 (high level of recalcitrance), callus induced with 0.01 μM TSA) | number of regenerated shoots per explant ([2]; genotype S706, FIGS. 3C and 4C, vs control) | proportion of cells undergoing embryogenic growth [3] | callus formation [4] | number of leaf explants with developing calli ([5]; after 28 days, without TSA not reached even after 49 days) | genotype-dependent recalcitrance to callus formation ([5]; first initial tests, TSA added) | average callus induction frequency ([5]; genotype 1, 0.01 μM TSA, control without TSA 66.3%) | callus induction frequency ([5]; genotype 2, 0.01 μM TSA vs control) | callus induction frequency ([5]; genotype 3 (high level of recalcitrance), 0.01 μM TSA) | speed of callus formation ([5]; genotype S706, FIG. 5, vs medium without TSA) | callus amount per leaf explant ([5]; genotype S706, FIGS. 3B and 4B, vs medium without TSA) | callus induction frequency (percentage of leaf explants that produced friable calli) ([5]; genotype S706, TSA 0.01 μM to 1.0 μM in callus induction medium, vs medium without TSA)
c1coc(CNc2ncnc3[nH]cnc23)c1 [Kinetin] | did not induce callus growth | – | – | – | – | – | – | – | – | – | – | – | – | – | –
CC(/C=C/C(=O)NO)=C\[C@@H](C)C(=O)c1ccc(N(C)C)cc1 [TSA, trichostatin A] | did not induce callus growth | 7.7 | 4.6 | able to regenerate shoots only when the calli were produced in medium containing TSA; also recorded: only possible if the callus has been induced in the presence of TSA | increased | large increase | defective callus formation | high number | could be reduced | 82% | no significant increase | very low | accelerates | increases | increased
